From publication PMC7397269, “Synthesis and Evaluation of New Coumarin Derivatives as Antioxidant, Antimicrobial, and Anti-Inflammatory Agents” (Molecules, 2020)
≈ marks a conversion by molar mass, not a printed value. Read-outs that look alike come from different tables or passages of the source.

How the values were obtained:
[1] = tested on: trypsin; test: Proteinase-inhibitory activity; type: biochemical; conditions: 250 µg/mL; mean ± SD (n = 3)
Description: The newly synthesised compounds were individually tested for their in vitro anti-inflammatory activity against proteinase enzyme. […] This test was performed at the Pharmacology Department, Medical Research Division, National Research Centre, Cairo, Egypt. Furthermore, compounds 2–8 were evaluated for their COX1/COX2 inhibitory activities.
The test was performed according to El-Serwy et al. with minor modifications. The reaction mixture (2 mL) contained 0.06 mg trypsin, 20 mM Tris HCl buffer (pH 7.4), and 1 mL test sample (250 µg/mL for each compound). After incubating for 5 min, 1 mL of 0.8% (w/v) casein was added. The mixture was incubated for an additional 20 min. The reaction was arrested by adding 1 mL of 10% perchloric acid. The cloudy suspension was centrifuged, and the absorbance of the supernatant was read at 280 nm. Reference standard aspirin was used as the positive control. The experiment was performed in triplicate. The percent inhibition of protein denaturation was calculated using the following Equation (2):(2) % Inhibition=100−A control −A test/A control×100 where Acontrol and Atest represent the absorbance of the control reaction without and with the sample, respectively.

[2] = tested on: Saccharomyces cerevisiae local isolate; test: MIC, two-fold serial dilution, S. cerevisiae; type: cell-based; conditions: read-out: Minimum inhibitory concentration, SC
Description: (§1) The new molecules were individually tested for their antimicrobial activity in vitro against standard bacteria strains from the American Type Culture Collection (ATCC), namely, Staphylococcus aureus ATCC 29213, Bacillus subtilis ATCC 6633, Bacillus megaterium ATCC 9885 (Gram-positive), Escherichia coli ATCC 2592, and Pseudomonas aeruginosa ATCC 27,953 (Gram-negative). The compounds were also microbiologically tested against locally isolated Saccharomyces cerevisiae (yeast) and the standard Agricultural Research Service Culture Collection (NRRL) strain of the yeast-like pathogenic fungus Candida albicans NRRL Y-477. Primary screening was conducted using the agar well diffusion method using nutrient agar (NA) medium and Sabourand dextrose agar (SDA) medium for the tested pathological bacteria and yeast, respectively. […].
(§2) The bacteriostatic activity of the active compounds (having IZ > 16 mm) was then evaluated using the two-fold serial dilution technique. Two-fold serial dilutions of the tested compounds solutions were prepared using the proper nutrient broth to reach final concentrations of 1000, 500, 250, and 125 μg/mL. The tubes were then inoculated with the test microorganisms grown in their suitable broth at 37 °C for 24 h (1 × 10^8 CFU/mL for bacteria and 1 × 10^6 CFU/mL of yeast), 0.1 mL of the above inoculum was administered per 5 mL, and the tubes were incubated at 37 °C for 24 h. The lowest concentration showing no growth was taken as the MIC.

[3] = tested on: Escherichia coli ATCC 2592; test: Agar well diffusion, E. coli; type: cell-based; conditions: ATCC2592, 100 μL of 10 mg/mL in DMSO, read-out: diameter of inhibition zone, EC
Description: as §1
(§3) Antimicrobial tests were conducted via the agar well diffusion method using 100 μL of suspension containing 1 × 10^8 CFU/mL pathological tested bacteria and 1 × 10^6 CFU/mL yeast spread on NA and SDA, respectively. After the media cooled and solidified, wells (10 mm in diameter) were made in the solidified agar and loaded with 100 μL of the tested compound solution prepared by dissolving 10 mg of the chemical compound in 1 mL dimethyl sulfoxide (DMSO). The inoculated plates were then incubated for 24 h at 37 °C for bacteria and yeast growth. DMSO served as negative control. Ciprofloxacin (10 mg/mL) and ketoconazole (10 mg/mL) were used as standards for antibacterial and antifungal activity, respectively. After incubation, antimicrobial activity was evaluated by measuring the zone of inhibition against the test organisms and compared with that of the standard. Antimicrobial activities were expressed as the diameter of the inhibition zone (IZ) in mm. The experiment was carried out in triplicate and the average zone of inhibition was calculated.

[4] = tested on: Bacillus subtilis ATCC 6633; test: Agar well diffusion, B. subtilis; type: cell-based; conditions: ATCC6633, 100 μL of 10 mg/mL in DMSO, read-out: diameter of inhibition zone, BS
Description: as §1, §3

[5] = DPPH antioxidant assay (radical scavenging); type: biochemical; conditions: mean ± SD (n = 3)
Description: The antioxidant effects of the synthesised compounds were assessed using the 2,2-diphenyl-1-picrylhydrazyl (DPPH) antioxidant assay. Table 1 summarises the antioxidant effects of the test samples and ascorbic acid except for compound 5b because it was produced in poor yield.
The radical scavenging activity of the synthesised compounds was measured using the DPPH microplate-based method. The absorbance was measured using a microplate/cuvette reader (Spectramax M5, Molecular Devices, San Jose, CA, USA). Reference standard ascorbic acid was utilised as the positive control for this assay. Test samples were prepared at a starting concentration of 200 μg/mL after mixing with 100 μL of 0.2 mM DPPH methanolic solution. […] Samples were incubated with DPPH in the dark for 30 min at room temperature (25 °C). The methanolic DPPH solution was prepared daily and stored in a flask covered with aluminium foil. DPPH radicals have an absorption maximum (λmax) at 515 nm, at which the absorbance values were measured and converted into a percentage of antioxidant activity.
The methanolic DPPH solution without antioxidants was used as a control, and samples in methanol alone served as a background control. IC50 was determined using GraphPad Prism 7 (GraphPad Software Inc., San Diego, CA, USA). The percent inhibition was calculated using the following Equation (1):(1) % Inhibition=100−Sample Absorbance −Sample background Absorbance/DPPH only Absorbance×100
The assay was carried out in triplicate and performed as much as possible in an area protected against light. The data points are presented as the mean ± standard deviation (SD, n = 3).

[6] = tested on: Staphylococcus aureus ATCC 29213; test: Agar well diffusion, S. aureus; type: cell-based; conditions: ATCC29213, 100 μL of 10 mg/mL in DMSO, read-out: diameter of inhibition zone, SA
Description: as §1, §3

[7] = tested on: Pseudomonas aeruginosa ATCC 27,953; test: Agar well diffusion, P. aeruginosa; type: cell-based; conditions: ATCC27, 100 μL of 10 mg/mL in DMSO, read-out: diameter of inhibition zone, PA
Description: as §1, §3

[8] = target: T1, COX-2 (Homo sapiens, UniProt P35354); test: COX-2 inhibition, Cayman assay kit; type: biochemical; conditions: for IC50: mean of two determinations; for SI, selectivity index (COX-1/COX-2): ratio of COX-1/COX-2 IC50
T1 construct: purchased Cayman Chemical 701080
T1 sequence (P35354 18-604): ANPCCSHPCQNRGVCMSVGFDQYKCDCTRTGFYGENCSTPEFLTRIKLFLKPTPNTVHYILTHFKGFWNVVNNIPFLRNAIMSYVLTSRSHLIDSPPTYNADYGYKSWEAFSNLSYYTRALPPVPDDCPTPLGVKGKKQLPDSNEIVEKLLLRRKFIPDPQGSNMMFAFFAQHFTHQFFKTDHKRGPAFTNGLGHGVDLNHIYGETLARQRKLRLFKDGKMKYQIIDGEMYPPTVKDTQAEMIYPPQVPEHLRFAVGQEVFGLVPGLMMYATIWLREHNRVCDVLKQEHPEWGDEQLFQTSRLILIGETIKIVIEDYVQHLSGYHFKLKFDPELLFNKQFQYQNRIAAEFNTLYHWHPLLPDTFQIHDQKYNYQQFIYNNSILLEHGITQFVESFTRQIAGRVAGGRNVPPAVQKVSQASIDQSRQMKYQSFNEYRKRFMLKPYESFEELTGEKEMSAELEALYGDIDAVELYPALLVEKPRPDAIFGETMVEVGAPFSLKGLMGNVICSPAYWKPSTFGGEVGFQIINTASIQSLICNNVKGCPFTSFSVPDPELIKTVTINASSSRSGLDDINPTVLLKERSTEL

[9] = tested on: Candida albicans NRRL Y-477; test: Agar well diffusion, C. albicans; type: cell-based; conditions: NRRLY477, 100 μL of 10 mg/mL in DMSO, read-out: diameter of inhibition zone, CA
Description: as §1, §3

[10] = tested on: Saccharomyces cerevisiae local isolate; test: Agar well diffusion, S. cerevisiae; type: cell-based; conditions: read-out: diameter of inhibition zone, SC
Description: as §1, §3

[11] = tested on: Bacillus megaterium ATCC 9885; test: Agar well diffusion, B. megaterium; type: cell-based; conditions: Priestia megaterium, ATCC9885, 100 μL of 10 mg/mL in DMSO, read-out: diameter of inhibition zone, BM
Description: as §1, §3

[12] = target: T2, COX-1 (Homo sapiens, UniProt P23219); test: COX-1 inhibition, Cayman assay kit; type: biochemical; conditions: mean of two determinations
T2 construct: purchased Cayman Chemical 701070

[13] = tested on: Candida albicans NRRL Y-477; test: MIC, two-fold serial dilution, C. albicans; type: cell-based; conditions: NRRLY477, read-out: Minimum inhibitory concentration, CA
Description: as §1, §2

[14] = tested on: Bacillus megaterium ATCC 9885; test: MIC, two-fold serial dilution, B. megaterium; type: cell-based; conditions: Priestia megaterium, ATCC9885, read-out: Minimum inhibitory concentration, BM
Description: as §1, §2

[15] = tested on: Bacillus subtilis ATCC 6633; test: MIC, two-fold serial dilution, B. subtilis; type: cell-based; conditions: ATCC6633, read-out: Minimum inhibitory concentration, BS
Description: as §1, §2

[16] = tested on: Staphylococcus aureus ATCC 29213; test: MIC, two-fold serial dilution, S. aureus; type: cell-based; conditions: ATCC29213, read-out: Minimum inhibitory concentration, SA
Description: as §1, §2

T2 sequence (P23219 24-599): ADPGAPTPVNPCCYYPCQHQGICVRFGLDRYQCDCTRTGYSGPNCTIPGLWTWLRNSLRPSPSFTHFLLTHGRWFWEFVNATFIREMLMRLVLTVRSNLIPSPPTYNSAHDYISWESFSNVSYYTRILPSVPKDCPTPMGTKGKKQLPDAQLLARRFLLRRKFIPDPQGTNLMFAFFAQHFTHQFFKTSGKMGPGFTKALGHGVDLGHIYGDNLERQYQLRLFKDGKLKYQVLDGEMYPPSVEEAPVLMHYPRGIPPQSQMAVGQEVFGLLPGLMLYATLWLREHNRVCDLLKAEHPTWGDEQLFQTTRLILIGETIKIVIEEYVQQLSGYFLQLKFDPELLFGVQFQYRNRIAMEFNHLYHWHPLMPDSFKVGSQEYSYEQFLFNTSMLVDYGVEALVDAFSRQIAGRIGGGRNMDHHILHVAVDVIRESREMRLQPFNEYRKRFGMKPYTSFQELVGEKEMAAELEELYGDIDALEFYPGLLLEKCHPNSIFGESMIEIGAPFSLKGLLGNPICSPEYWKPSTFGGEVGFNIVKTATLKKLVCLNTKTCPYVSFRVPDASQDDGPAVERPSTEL

| Structure (SMILES) | % Inhibition (proteinase) [1] | melting point | MIC [2] | zone of inhibition at 10000 µg/mL [3] | zone of inhibition at 10000 µg/mL [4] | IC50 [5] | zone of inhibition at 10000 µg/mL [6] | zone of inhibition at 10000 µg/mL [7] | IC50 [8] | SI, selectivity index (COX-1/COX-2) [8] | zone of inhibition at 10000 µg/mL [9] | zone of inhibition at 10000 µg/mL [10] | zone of inhibition at 10000 µg/mL [11] | IC50 [12] | MIC [13] | MIC [14] | zone of inhibition at 10000 µg/mL ([10]; well diffusion, 100 μL of 10 mg/mL in DMSO, S. cerevisiae) | MIC [15] | MIC [16] |
| --- | --- | --- | --- | --- | --- | --- | --- | --- | --- | --- | --- | --- | --- | --- | --- | --- | --- | --- | --- |
| Cc1ccc2oc(=O)c3c(c2c1)OC(N)=C(C(N)=O)C3c1ccco1 (racemic) [3b, (±)-2-Amino-4-(furan-2-yl)-9-methyl-5-oxo-4H,5H-pyrano[3,2-c]chromene-3-carboxamide] | 49.28 ± 10.93% | 202 to 204 °C | 1000 mg/L (≈ 2960 µM) | 16 mm | < 15 mm | 48.38 ± 4.616 mg/L (≈ 143 µM) | 16 mm | 16 mm | 2.45 µM | 3.16 | 18 mm | 17 mm | < 15 mm | 7.73 µM | 1000 mg/L (≈ 2960 µM) |  |  |  |  |
| O=C(/C=C/c1ccc([N+](=O)[O-])cc1)c1ccc(NS(=O)(=O)c2c(O)c3cc(Cl)ccc3oc2=O)cc1 [9a, (E)-6-Chloro-4-hydroxy-N-(4-(3-(4-nitrophenyl)acryloyl)phenyl)-2-oxo-2H-chromene-3-sulfonamide] | 62.14 ± 4.87% | 205 to 207 °C |  | < 15 mm | 18 mm | — ((—): inactive (IC50 > 200 μg/mL)) | 16 mm | < 15 mm |  |  | < 15 mm |  | 18 mm |  |  | 1000 mg/L (≈ 1900 µM) | < 15 mm | 1000 mg/L (≈ 1900 µM) |  |
| COc1cc(/C=N/C2=C(C#N)C(c3ccco3)c3c(c4cc(C)ccc4oc3=O)O2)cc(OC)c1OC (racemic) [5d, (±)-4-(furan-2-yl)-9-methyl-5-oxo-2-((3,4,5-trimethoxybenzylidene)amino)-4H,5H-pyrano[3,2-c]chromene-3-carbonitrile] | 43.4 ± 1.52% | 248 to 250 °C | 1000 mg/L (≈ 2010 µM) | < 15 mm | < 15 mm | 82.92 ± 3.300 mg/L (≈ 166 µM) | 18 mm | < 15 mm | 16 µM | 1.7 | 19 mm | 19 mm | < 15 mm | 27.2 µM | 1000 mg/L (≈ 2010 µM) |  |  |  | 1000 mg/L (≈ 2010 µM) |
| Cc1ccc2oc(=O)c3c(c2c1)OC(/N=C/c1ccc(Cl)cc1Cl)=C(C#N)C3c1ccc([N+](=O)[O-])cc1 (racemic) [5e, (±)-2-((2,4-dichlorobenzylidene)amino)-9-methyl-4-(4-nitrophenyl)-5-oxo-4H,5H-pyrano[3,2-c]chromene-3-carbonitrile] | 45.78 ± 1.62% | 236 to 238 °C | 500 mg/L (≈ 939 µM) | 15 mm | 16 mm | — ((—): inactive (IC50 > 200 μg/mL)) | 16 mm | 15 mm | 8.27 µM | 2.52 | 20 mm | 22 mm | 16 mm | 20.8 µM | 500 mg/L (≈ 939 µM) |  |  |  |  |
